One assay deals with PC12 cells. The assay is described as follows: Uptake of [125I]NGF into PC12 cells. The assay is classed as cell-based, rat. As to conditions: 20 pM or 0.2 nM [125I]NGF; saturating R3. As for the experimental part:
(§1) PC12 cells were removed from culture dishes with CMF, washed, and incubated at a concentration of 10^6 per ml in Hepes-Krebs-Ringer (HKR) buffer buffer with 1 mg·ml^−1 BSA for 90 minutes at 37° C. in the presence of 40 pM [^125I]NGF in the absence and presence of excess unlabeled NGF, and in the absence and presence of R3 peptide. Aliquots of 100 μl were removed in replicates and mircocentrifuged at 10,000×g for 1 minute. Supernatants were removed, tips were cut from the microcentrifuge tube and counted in a gamma counter. Specific binding was defined as the difference between binding of the ligand in the absence and presence of unlabeled NGF, and fractional specific binding in the absence and presence of R3 peptide was compared. Studies of [^125I]NGF uptake into PC12 and PC12^nnr5 cells were carried out in the absence and presence of 10 μM R3 peptide and following a 24-hour exposure of PC12 cultures to 10 μM R3 peptide. Cells were eposed to 20 pM or 0.2 nM [^125I]NGF for periods of time up to 240 minutes (steady state) at 37° C. The cells were then briefly acid-washed as described by Bernd and Greene (1984), and aliquots were prepared for gamma counting as described. NGF was radioiodinated as described in Sutter et al. (1979b).

Another assay has as its system PC12^nnr5 cells. The assay is described as follows: Uptake of [125I]NGF into PC12nnr5 cells. The assay is classed as cell-based, rat. The conditions noted are these: 20 pM or 0.2 nM [125I]NGF; saturating R3. How it is done: as §1
Assay [1] deals with T1, TrkA (Rattus norvegicus, UniProt P35739).
T1 construct: endogenous in cells; host or cells: PC12
The assay is described as follows: [125I]NGF affinity cross-linking to TrkA. It counts as binding. As to conditions: PC12 cells, 50 μM R3. As for the experimental part: FIG. 7A illustrates the influence of peptide R3 on affinity cross-linking of TrkA and p75^NTR. Intact PC12 cells were treated with 50 μM R3 for 24 h (preinc.) in medium, harvested with CMF medium, and suspended at a concentration of 10^6·ml^−1 (or 10^7·m^−1 for immunoprecipitation studies) in HKR buffer. Cells were then incubated in the presence or absence of R3 (coinc.) for 15 min at 37° C. and cooled in ice. Cross-linking was performed by incubating cells with 1 nM [^125I]-NGF for 2 h at 4° C., adding EDC ([…]) and NHS (2 mM) or BS^3 (0.4 mM) as indicated, and incubating for 30 min at 25° C. Cells were washed three times in HKR buffer and the pellet dissolved in reducing SDS sample buffer or in lysis buffer (1% NP-40, 10% glycerol, 1 mM PMSF, 10 μg-ml^−1 aprotinin, 1 μg/ml leupeptin, […] o-vanadate in TBS) for immunoprecipitation (lanes 4 and 8). For immunoprecipitation, the cellular debris was removed by centrifugation and the supernatant incubated with 1 μg anti-p75^NTR monoclonal Ab 192 (Cedarlane Laboratories Ltd.) or 1 μg anti-TrkA polyclonal Ab (a gift from Dr. W. Mobley, University of California, San Francisco) for 4 h at 4° C. Immunoprecipates were isolated by incubating with 50 μl of a 50% solution of protein A-SEPHAROSE™ (anti-Trk) or goat anti-mouse agarose (Ab 192) for 2 h at 4° C. Precipitates were washed 3 times in lysis buffer and dissolved in sample buffer. […]

In assay [2] the test system is TrkA. The assay is described as follows: NGF-mediated TrkA tyrosine phosphorylation in PC12 cells. The conditions noted are these: prior to or at the time of NGF exposure. The assay is classed as cell-based, rat. How it is done: FIG. 7B illustrates the influence of peptide R3 on TrkA phosphorylation. PC12 cells were treated with R3 for 30 min or 24 h and suspended in HKR buffer at a concentration of 10^7·ml^−1. NGF (50 ng·ml^−1) was added where indicated and samples incubated for 15 min at 37° C. Cells were subsequently harvested by centrifugation and the pellets dissolved in lysis buffer and immunoprecipitated for TrkA as described. Immunoprecipitated proteins were separated using 7.5% polyacrylamide gels (Laemmli) and transblotted to PVDF membrane. The membrane was processed for anti-phosphotyrosine with HRP-conjugated antibody RC-20 as described by the manufacture's literature (Transduction Laboratories Ltd.).
TrkA phosphorylation was performed by a modification of the method of Kaplan et al. (1991 a and b). PC12 cells were harvested as described and suspended at a concentration of 10^7 ml in HKR buffer. NGF (100 ng·ml^−1) was added and the cell suspension was incubated for 30 min at 37° C. and pelleted at 4° C. The cells were solublized with lysis buffer, and TrkA protein was immunoprecipitated as described. Proteins were fractionated by 7.5% SDS-PAGE, and transferred to nitrocellulose for immunoblot analysis as described (Harlow and Lane, 1988). Phosphoproteins were visualized using anti-phosphotyrosine clone 4G10 (UBI) as described in the supplier's product literature.

T1 sequence (P35739 33-799): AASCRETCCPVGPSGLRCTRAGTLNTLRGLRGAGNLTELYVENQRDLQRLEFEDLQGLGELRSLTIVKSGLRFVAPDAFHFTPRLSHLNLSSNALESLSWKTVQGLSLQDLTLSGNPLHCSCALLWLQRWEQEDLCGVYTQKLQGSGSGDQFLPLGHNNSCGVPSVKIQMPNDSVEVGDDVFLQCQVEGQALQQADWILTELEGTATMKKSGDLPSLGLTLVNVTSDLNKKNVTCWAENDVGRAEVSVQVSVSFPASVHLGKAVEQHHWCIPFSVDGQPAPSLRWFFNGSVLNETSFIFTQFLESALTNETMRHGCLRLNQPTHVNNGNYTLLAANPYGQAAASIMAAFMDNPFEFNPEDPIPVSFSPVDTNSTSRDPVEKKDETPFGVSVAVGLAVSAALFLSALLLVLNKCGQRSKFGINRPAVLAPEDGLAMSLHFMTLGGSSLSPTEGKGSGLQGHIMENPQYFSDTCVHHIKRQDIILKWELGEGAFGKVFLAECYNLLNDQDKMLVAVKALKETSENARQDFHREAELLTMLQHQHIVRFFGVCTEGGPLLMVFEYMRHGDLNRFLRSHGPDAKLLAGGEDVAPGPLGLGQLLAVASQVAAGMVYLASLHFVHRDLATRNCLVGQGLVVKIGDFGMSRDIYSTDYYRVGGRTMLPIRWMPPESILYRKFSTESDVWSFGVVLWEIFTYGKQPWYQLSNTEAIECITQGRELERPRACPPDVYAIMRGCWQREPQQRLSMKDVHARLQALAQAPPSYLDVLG

Regarding LDALLAALRRIQR [R3], the “Rates of [125I]NGF uptake, in words” value in the assay on PC12 cells and with PC12^nnr5 cells was “not influenced” in each case. Moreover, in the assay with TrkA [1], the “Affinity cross-linking of [125I]NGF to TrkA monomers or homodimers, in words” value is given as “not affected”. The “Influence on NGF-mediated tyrosine phosphorylation of TrkA, in words” value in the assay on TrkA [2] was “did not consistently influence”.
